Test system: Lis1+/− mouse embryonic fibroblasts (MEF)
Test: Change in LIS1 protein amount in cells by SNJ-1945 (western blotting)
Assay type: cell-based
Details: Lis1+/− MEF treated with SNJ-1945, western blotting, FIG. 1
Method: Fibroblasts (MEF; mouse embryonic fibroblasts) were established from five each of LIS1 gene hetero-deficient and wild-type mice (12.5- to 14.5-day-old embryos). The fibroblasts were established as follows. Pregnant mice were killed by cervical fracture, and the mouse embryos were immediately isolated under a germ-free condition. After the heads and visceral tissues were removed with tweezers, the mouse embryos were dissected with scissors. 10 ml of Trypsin-EDTA (Gibco, 25200) was added to each dissected tissue fraction, and the resulting liquid was placed in a 50 ml plastic tube (Nunc, 373687) to be subjected to 30-minute incubation at 37° C. After incubation, 10 ml of fetal bovine serum (Equitech-Bio, Inc., SFBM30-1798) was added, followed by pipetting with a 10 ml pipette (Nunc, 159633), thereby isolating the cells. After the cells were allowed to stand at room temperature for 5 minutes, the supernatant was collected. […]
Using the cells, the influence of SNJ-1945 on the LIS protein amount in each cell was analyzed as follows. […] After determination of protein quantity, 10 μg of protein was placed on each lane. After isolation using a 10% acrylic gel (SDS-PAGE), the protein was transferred to an Immobilon membrane (Millipore, IPVH00010), and LIS and DIC (dynein intermediate chain: reflecting the dynein amount) were detected. […] was detected to be used as a protein amount reference. […]

## COCCOCCOC(=O)N[C@@H](CC(C)C)C(=O)N[C@@H](Cc1ccccc1)C(=O)C(=O)NC1CC1 [compound 17, ((1S)-1-((((1S)-1-Benzyl-2,3-dioxo-3-(cyclopropylamino)propyl)amino)carbonyl)-3-methylbutyl)carbamic acid 5-methoxy-3-oxapentyl ester]
  LIS protein amount in cells: the decrease in the LIS protein amount was recovered

Reference: patent publication US9539298B2, “Lissencephaly therapeutic agent” (OSAKA CITY UNIVERSITY, priority 2010, dated 2017)
